Measured values published in patent publication US20250228861A1, “Cancer Treatments Using MTA-Cooperative PRMT5 Inhibitors” (AMGEN INC., priority 2022, published 2025).
Entries after “also recorded” stand apart in the source; their conditions may differ.

Tests used:
H292 cells [1] = experiment: Combination with paclitaxel, CellTiter-Glo viability, Fa and CalcuSyn CI; assay type: cell-based; details: 6 days;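 further: fa derived from raw luminescence, CI computed in CalcuSyn from drug concentrations and Fa, with CI under 0.9 indicating synergism and 0.9 to 1.1 nearly additive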
Experimental: (§1) Cell viability was measured by the CellTiter-Glo Luminescence assay. Raw luminescent values were converted to fraction affected (Fa) with the following equation:
(§2) Synergy analysis was performed using the CalcuSyn software to determine CI scores based on the drug concentrations used and corresponding Fa values.

A549 cells [2] = experiment: Combination with pemetrexed, CellTiter-Glo viability, Fa and CalcuSyn CI; details: 6 days;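 further: fa derived from raw CellTiter-Glo luminescence, CI computed by CalcuSyn from drug concentrations and Fa, with values below 0.9 meaning synergism and 0.9–1.1 nearly additive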
Experimental: as §1, §2

A549 cells [3] = experiment: Combination with paclitaxel, CellTiter-Glo viability, Fa and CalcuSyn CI; assay type: cell-based; details: 6 days;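 further: luminescent viability signal converted to fraction affected (Fa), and Fa with drug concentrations gives the CalcuSyn CI, where 0.9–1.1 is nearly additive and lower CI means stronger synergism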
Experimental: as §1, §2

PSN1 cells = experiment: Combination with irinotecan, CellTiter-Glo viability, Fa and CalcuSyn CI; assay type: cell-based; details: 6 days
Experimental: as §1, §2

H292 NSCLC xenografts = experiment: H292 NSCLC xenografts, combination with chemotherapy; assay type: in vivo, mice
MIAPACA2T2 cells [4] = experiment: Combination with gemcitabine, CellTiter-Glo viability, Fa and CalcuSyn CI; assay type: cell-based; details: 6 days
Experimental: as §1, §2

MIAPACA2T2 cells [5] = experiment: Combination with irinotecan, CellTiter-Glo viability, Fa and CalcuSyn CI; assay type: cell-based; details: 6 days
Experimental: as §1, §2

H292 cells [6] = experiment: Combination with pemetrexed, CellTiter-Glo viability, Fa and CalcuSyn CI; details: 6 days;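 further: fa derived from CellTiter-Glo luminescence signal, CI calculated in CalcuSyn from doses and Fa, with 0.9–1.1 nearly additive and smaller values indicating synergism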
Experimental: as §1, §2

MIAPACA2T2 cells [7] = experiment: Combination with carboplatin, CellTiter-Glo viability, Fa and CalcuSyn CI; assay type: cell-based; details: 6 days
Experimental: as §1, §2

[8] = test system: endogenous MTAP-null patient derived xenograft models; experiment: MTAP-null patient derived xenograft (PDX) models, tumor growth inhibition; assay type: in vivo, mice
Excerpt: Female NOD/SCID mice were implanted with PA5415 (pancreatic tumors) or ES11082 (esophageal tumors). […] Data represent group means±SEM, n=10. for each group.
For each model, 6 Female NOD/SCID mice were implanted with PDX. Mean tumor volumes for each grouping were between 100-200 mm^3.
6 Female NOD/SCID mice were implanted with patient-derived tumor xenograft (PDX) models of pancreatic ovarian, esophageal, melanoma, lung, brain, mixed mullerian or gallbladder cancer. Mean tumor volumes for each grouping were between 100-200 mm^3.

[9] = Compound B 0.2916 μM fixed + Paclitaxel 0.0005 μM
[10] = Compound B 0.2916 μM fixed + Paclitaxel 0.0007 μM
[11] = Compound B 0.2916 μM fixed + Paclitaxel 0.0009 μM
[12] = Compound B 0.2916 μM fixed + Paclitaxel 0.0011 μM
[13] = Compound B 0.2916 μM fixed + Paclitaxel 0.0015 μM
[14] = Compound B 0.2916 μM fixed + Paclitaxel 0.0019 μM
[15] = Compound B 0.2916 μM fixed + Paclitaxel 0.0025 μM
[16] = Compound B 0.1535 μM fixed + Pemetrexed 0.131687 μM
[17] = Compound B 0.1535 μM fixed + Pemetrexed 0.197531 μM
[18] = Compound B 0.1535 μM fixed + Pemetrexed 0.296296 μM
[19] = Compound B 0.1535 μM fixed + Pemetrexed 0.444444 μM
[20] = Compound B 0.1535 μM fixed + Pemetrexed 0.666667 μM
[21] = Compound B 0.1535 μM fixed + Pemetrexed 1 μM
[22] = Compound B 0.1535 μM fixed + Paclitaxel 0.0005 μM
[23] = Compound B 0.1535 μM fixed + Paclitaxel 0.0007 μM
[24] = Compound B 0.1535 μM fixed + Paclitaxel 0.0009 μM
[25] = Compound B 0.1535 μM fixed + Paclitaxel 0.0011 μM
[26] = Compound B 0.1535 μM fixed + Paclitaxel 0.0015 μM
[27] = Compound B 0.1535 μM fixed + Paclitaxel 0.0019 μM
[28] = Compound B 0.1535 μM fixed + Paclitaxel 0.0025 μM
[29] = Compound B 0.2916 μM fixed + Gemcitabine 0.002045 μM
[30] = Compound B 0.1535 μM fixed + Pemetrexed 1.5 μM

Cc1cc2cc(C(=O)N(Cc3ccc(C(F)(F)F)cn3)[C@@H](C)c3ncccn3)ccc2nc1N [Compound B]
Combination Fa (H292 cells [1]; [9]): 0.7127 | Computed CI value (H292 cells [1]; [9]): 0.84 | Combination Fa (H292 cells [1]; [10]): 0.7796 | Computed CI value (H292 cells [1]; [10]): 0.758 | Combination Fa (H292 cells [1]; [11]): 0.8302 | Computed CI value (H292 cells [1]; [11]): 0.757 | Combination Fa (H292 cells [1]; [12]): 0.8932 | Computed CI value (H292 cells [1]; [12]): 0.724 | Combination Fa (H292 cells [1]; [13]): 0.9425 | Computed CI value (H292 cells [1]; [13]): 0.697 | Combination Fa (H292 cells [1]; [14]): 0.9568 | Computed CI value (H292 cells [1]; [14]): 0.8 | Combination Fa (H292 cells [1]; [15]): 0.9674 | Computed CI value (H292 cells [1]; [15]): 0.928 | Combination Fa (A549 cells [2]; Compound B 0.1535 μM fixed + Pemetrexed 0.087792 μM): 0.6401 | Combination Fa (A549 cells [2]; [16]): 0.6629 | Computed CI value (A549 cells [2]; [16]): 0.936 | Combination Fa (A549 cells [2]; [17]): 0.6484 | Computed CI value (A549 cells [2]; [17]): 1.172 | Combination Fa (A549 cells [2]; [18]): 0.6761 | Computed CI value (A549 cells [2]; [18]): 1.033 | Combination Fa (A549 cells [2]; [19]): 0.7384 | Computed CI value (A549 cells [2]; [19]): 0.639 | Combination Fa (A549 cells [2]; [20]): 0.8303 | Computed CI value (A549 cells [2]; [20]): 0.235 | Combination Fa (A549 cells [2]; [21]): 0.8717 | Computed CI value (A549 cells [2]; [21]): 0.139 | Combination Fa (A549 cells [3]; [22]): 0.7030 | Computed CI value (A549 cells [3]; [22]): 0.545 | Combination Fa (A549 cells [3]; [23]): 0.7177 | Computed CI value (A549 cells [3]; [23]): 0.64 | Combination Fa (A549 cells [3]; [24]): 0.7578 | Computed CI value (A549 cells [3]; [24]): 0.716 | Combination Fa (A549 cells [3]; [25]): 0.8365 | Computed CI value (A549 cells [3]; [25]): 0.745 | Combination Fa (A549 cells [3]; [26]): 0.9023 | Computed CI value (A549 cells [3]; [26]): 0.786 | Combination Fa (A549 cells [3]; [27]): 0.9387 | Computed CI value (A549 cells [3]; [27]): 0.867 | Combination Fa (A549 cells [3]; [28]): 0.9692 | Computed CI value (A549 cells [3]; [28]): 0.898 | Computed CI value (PSN1 cells; Compound B 0.0202 μM fixed + Irinotecan 0.088889 μM): 0.806 | Computed CI value (PSN1 cells; Compound B 0.0202 μM fixed + Irinotecan 0.133333 μM): 0.8 | Computed CI value (PSN1 cells; Compound B 0.0202 μM fixed + Irinotecan 0.2 μM): 0.8 | anti-tumor activity of combination with paclitaxel (H292 NSCLC xenografts; 100 mg/kg orally once daily + paclitaxel 20 mg/kg IP): significant anti-tumor activity versus either single agent alone; also recorded: significant anti-tumor activity versus paclitaxel or carboplatin alone | anti-tumor activity of combination with carboplatin (H292 NSCLC xenografts; orally once daily + carboplatin 60 mg/kg IP 1×/week): significant anti-tumor activity versus paclitaxel or carboplatin alone | Combination Fa (MIAPACA2T2 cells [4]; Compound B 0.2916 μM fixed + Gemcitabine 0.001461 μM): 0.567 | Combination Fa (MIAPACA2T2 cells [4]; [29]): 0.514 | Computed CI value (MIAPACA2T2 cells [4]; [29]): 1.006 | Computed CI value (MIAPACA2T2 cells [4]; Compound B 0.2916 μM fixed + Gemcitabine 0.002863 μM): 0.823 | Computed CI value (MIAPACA2T2 cells [4]; Compound B 0.2916 μM fixed + Gemcitabine 0.004009 μM): 0.866 | Computed CI value (MIAPACA2T2 cells [4]; Compound B 0.2916 μM fixed + Gemcitabine 0.005612 μM): 0.843 | Computed CI value (MIAPACA2T2 cells [4]; Compound B 0.2916 μM fixed + Gemcitabine 0.007857 μM): 0.895 | Computed CI value (MIAPACA2T2 cells [4]; Compound B 0.2916 μM fixed + Gemcitabine 0.011 μM): 1.007 | Computed CI value (MIAPACA2T2 cells [5]; Compound B 0.4374 μM fixed + Irinotecan 0.256 μM): 0.602 | Computed CI value (MIAPACA2T2 cells [5]; Compound B 0.4374 μM fixed + Irinotecan […]): 0.647 | Combination Fa (H292 cells [6]; [16]): 0.6769 | Computed CI value (H292 cells [6]; [16]): 0.73 | Combination Fa (H292 cells [6]; [17]): 0.7032 | Computed CI value (H292 cells [6]; [17]): 0.587 | Combination Fa (H292 cells [6]; [18]): 0.7484 | Computed CI value (H292 cells [6]; [18]): 0.401 | Combination Fa (H292 cells [6]; [19]): 0.7887 | Computed CI value (H292 cells [6]; [19]): 0.309 | Combination Fa (H292 cells [6]; [20]): 0.8438 | Computed CI value (H292 cells [6]; [20]): 0.215 | Combination Fa (H292 cells [6]; [21]): 0.8703 | Computed CI value (H292 cells [6]; [21]): 0.216 | Combination Fa (H292 cells [6]; [30]): 0.8508 | Computed CI value (H292 cells [6]; [30]): 0.385 | Combination Fa (MIAPACA2T2 cells [7]; Compound B 0.4374 μM fixed + Carboplatin 2.47793 μM): 0.653 | Computed CI value (MIAPACA2T2 cells [7]; Compound B 0.4374 μM fixed + Carboplatin 11.1111 μM): 0.269 | tumor growth inhibition (TGI) ([8]; 100 mg/kg orally once daily, majority of PDX models harboring deletion of the MTAP gene, panel of over twenty PDX models): greater than 50% | anti-tumor growth inhibition ([8]; PA5415 pancreatic and ES11082 esophageal PDX, p.o. once a day): significant anti-tumor growth inhibition
